The record followed here is publication PMC9224473 (International Journal of Molecular Sciences, 2022).

Assay [1] concerns S. pasteuri KR 4358. Kind of assay: MIC, broth microdilution, clinical strain. It is filed as cell-based, Staphylococcus pasteuri. The following applies: Staphylococcus pasteuri, KR4358, 19 h, 35 °C.
The test system of assay [2] is S. aureus ATCC 6538. Kind of assay: MIC, broth microdilution, standard strain. Type of assay: cell-based, Staphylococcus aureus. The following applies: Staphylococcus aureus, ATCC6538, 19 h, 35 °C. For orientation: Dilution methods test growth across graded concentrations, often in twofold steps.
The test system of assay [3] is S. aureus ATCC 25923. Put plainly: MIC, broth microdilution, standard strain. It is filed as cell-based, Staphylococcus aureus. The following applies: Staphylococcus aureus, ATCC25923, 19 h, 35 °C.
In assay [4] the test system is SW620 (human metastatic colon cancer). Kind of assay: MTT cytotoxicity assay. The following applies: Homo sapiens, SW-620, 72 h, mean SD. It is filed as cell-based. As for the experimental part:
(§1) The human cell lines SW480 (primary colon cancer), SW620 (lymph node metastatic colon cancer from the same patient as primary cancer cells), HCT116 (colon carcinoma), HepG2 (liver cancer), and HaCaT (immortalized keratinocytes) were obtained from the American Type Culture Collection (ATCC, Rockville, MD, USA). The SW480, SW620 and HCT116 cells were grown in MEM (ThermoSci, Waltham, MA, USA), HepG2 and HaCaT in DMEM High Glucose (Biowest SAS, Nuaillé, France) supplemented with 10% foetal bovine serum (FBS), HEPES (20 mM), and antibiotics (100 U mL^−1 of Penicillin and 100 μg mL^−1 of Streptomycin). The cells were incubated in a humidified incubator at 37 °C/5% CO2, until 80–90% confluence was reached.
The cell viability was assessed by using of MTT salt [3-(4,5-dimethylthiazol-2-yl)-2,5-diphenyltetrazolium bromide] converted by mitochondrial dehydrogenase, occurring in living cells. […] The untreated cells were used as the control.
(§2) Subsequently, the medium was removed and dimethyl sulfoxide (DMSO) with isopropanol (1:1) was added to dissolve the formazan crystals. The optical density was measured using UVM 340 reader (ASYS Hitech GmbH, Eugendorf, Austria) at a wavelength of 570 nm. The experiments were repeated three times. The cell viability was calculated as the percent of MTT reduced in treated cells versus control cells (untreated cells). The number of viable cells cultured without tested compounds was assumed as 100%. A decreased relative MTT level indicates decreased cell viability. The IC50 values were estimated using CompuSyn version 1.0.
(In general: Tetrazolium assays rely on reduction of a dye to a coloured formazan, in cell work by metabolically active cells.)

The subject of assay [5] is S. epidermidis ATCC 12228. Kind of assay: MIC, broth microdilution, standard strain. The settings on record: Staphylococcus epidermidis, ATCC12228, 19 h, 35 °C. It is filed as cell-based, Staphylococcus epidermidis.
The test system of assay [6] is S. aureus T 5595. Kind of assay: MIC, broth microdilution, clinical strain. It is filed as cell-based, Staphylococcus aureus. The settings on record: Staphylococcus aureus, T5595, 19 h, 35 °C.
The subject of assay [7] is S. aureus ATCC 29213. Put plainly: MIC, broth microdilution, standard strain. Type of assay: cell-based, Staphylococcus aureus. The following applies: Staphylococcus aureus, ATCC29213, 19 h, 35 °C.
Assay [8] deals with P. aeruginosa ATCC 15442. Put plainly: MIC, broth microdilution, standard strain. Type of assay: cell-based, Pseudomonas aeruginosa. The following applies: Pseudomonas aeruginosa, ATCC15442, 19 h, 35 °C.
Assay [9] concerns HaCaT (human immortal keratinocyte cell line). Kind of assay: MTT cytotoxicity assay. Type of assay: cell-based. The following applies: Homo sapiens, HaCaT, 72 h, mean SD, read-out: IC50 HaCaT (normal cells). As for the experimental part: as §1
(§3) The cell viability was assessed by using of MTT salt [3-(4,5-dimethylthiazol-2-yl)-2,5-diphenyltetrazolium bromide] converted by mitochondrial dehydrogenase, occurring in living cells. The cells were seeded in 96-well plates at a density of 1 × 10^4 cells per well and allowed to adhere for 24 h at 37 °C in a CO2 humidified incubator. […]. The untreated cells were used as the control.
as §2, with “After 72 h incubation, the medium was replaced with 200 µL per well of free-serum medium containing 0.5 mg mL^−1 MTT and incubated for 4 h at 37 °C in a CO2 humidified incubator. Subsequently,” for “Subsequently,”

Assay [10] relates to HepG2 (human liver cancer). Put plainly: MTT cytotoxicity assay. Type of assay: cell-based. The following applies: Homo sapiens, HepG2, 72 h, mean SD. As for the experimental part:
as §1, §3
as §2, with “After 72 h incubation, the medium was replaced with 200 µL per well of free-serum medium containing 0.5 mg mL^−1 MTT and incubated for 4 h at 37 °C in a CO2 humidified incubator. Subsequently,” for “Subsequently,”

Assay [11] concerns HCT116 (human colon cancer). Kind of assay: MTT cytotoxicity assay. It is filed as cell-based. The settings on record: Homo sapiens, HCT-116, 72 h, mean SD. As for the experimental part:
as §1, §3
as §2, with “After 72 h incubation, the medium was replaced with 200 µL per well of free-serum medium containing 0.5 mg mL^−1 MTT and incubated for 4 h at 37 °C in a CO2 humidified incubator. Subsequently,” for “Subsequently,”

Assay [12] relates to SW480 (human primary colon cancer). Kind of assay: MTT cytotoxicity assay. Type of assay: cell-based. The following applies: Homo sapiens, SW480, 72 h, mean SD. As for the experimental part: as §1, §3
as §2, with “After 72 h incubation, the medium was replaced with 200 µL per well of free-serum medium containing 0.5 mg mL^−1 MTT and incubated for 4 h at 37 °C in a CO2 humidified incubator. Subsequently,” for “Subsequently,”

Assay [13] relates to E. coli 510. Put plainly: MIC, broth microdilution, clinical strain. It is filed as cell-based, Escherichia coli. The following applies: Escherichia coli, 510, 19 h, 35 °C.
In assay [14] the test system is S. aureus NCTC 4163. Kind of assay: MIC, broth microdilution, standard strain. It is filed as cell-based, Staphylococcus aureus. The settings on record: Staphylococcus aureus, NCTC4163, 19 h, 35 °C.
The subject of assay [15] is E. coli 600. Kind of assay: MIC, broth microdilution, clinical strain. The following applies: Escherichia coli, 600, 19 h, 35 °C. Type of assay: cell-based, Escherichia coli.
For assay [16], the system named is S. epidermidis ATCC 35984. Put plainly: MIC, broth microdilution, standard strain. It is filed as cell-based, Staphylococcus epidermidis. The settings on record: Staphylococcus epidermidis, ATCC35984, 19 h, 35 °C.
Assay [17] deals with P. aeruginosa 659. Put plainly: MIC, broth microdilution, clinical strain. It is filed as cell-based, Pseudomonas aeruginosa. The settings on record: Pseudomonas aeruginosa, 659, read-out: MIC P. aeruginosa 659, 19 h, 35 °C.
Assay [18] deals with S. epidermidis KR 4243. Put plainly: MIC, broth microdilution, clinical strain. Type of assay: cell-based, Staphylococcus epidermidis. The settings on record: Staphylococcus epidermidis, KR4243, 19 h, 35 °C.
Assay [19] relates to E. coli 520. Kind of assay: MIC, broth microdilution, clinical strain. The settings on record: Escherichia coli, 520, 19 h, 35 °C. Type of assay: cell-based, Escherichia coli.
Assay [20] deals with E. coli ATCC 25922. Kind of assay: MIC, broth microdilution, standard strain. Type of assay: cell-based, Escherichia coli. The following applies: 35 °C; for MIC: Escherichia coli, ATCC25922, 19 h.
Assay [21] concerns S. aureus T 5591. Kind of assay: MIC, broth microdilution, clinical strain. It is filed as cell-based, Staphylococcus aureus. The following applies: Staphylococcus aureus, T5591, 19 h, 35 °C.

The structures appear in SMILES notation. Converted amounts (≈) assume the structure as drawn. Some results are limits rather than exact numbers.

Consider `CC(C)[C@@H]1CC[C@@H](C)C[C@H]1OC(=O)CN1CCN(c2cc3c(cc2F)c(=O)c(C(=O)O)cn3C2CC2)CC1` [Compound 2, 1-cyclopropyl-6-fluoro-7-{4-[2-((1R,2S,5R)-2-isopropyl-5-methylcyclohexyloxy)-2-oxoethyl]piperazin-1-yl}-4-oxo-1,4-dihydroquinoline-3-carboxylic acid], for which the MIC in [1], in assay [2], in assay [3], in assay [5], in assay [6] and in assay [7] was 16 µg/mL (≈ 30.3 µM) each time. Moreover, the MIC (usually the least concentration at which growth counts as inhibited) was 128 µg/mL (≈ 243 µM) in assay [8]; above 256 µg/mL in [13]; 16 µg/mL (≈ 30.3 µM) in [14]; 16 µg/mL (≈ 30.3 µM) in assay [15]; 16 µg/mL (≈ 30.3 µM) in assay [16]; 128 µg/mL (≈ 243 µM) in assay [17]. For the same compound, the MIC in assay [18] was 16 µg/mL (≈ 30.3 µM); in [19], 16 µg/mL (≈ 30.3 µM); in assay [20], 8 µg/mL (≈ 15.2 µM); in [21], 16 µg/mL (≈ 30.3 µM). Moreover, the IC50 (usually the concentration at which inhibition is half-maximal) in [4] came to 26.7 ± 0.2 µM; in [9], 25.7 ± 3 µM; in assay [10], 16.5 ± 0.4 µM; in assay [11] it was 32.3 ± 1.5 µM; in [12] it was 36 ± 2.9 µM.
On to `CC(C)[C@@H]1CC[C@@H](C)C[C@H]1OC(=O)CCN1CCN(c2cc3c(cc2F)c(=O)c(C(=O)O)cn3C2CC2)CC1` [Compound 3, 1-cyclopropyl-6-fluoro-7-{4-[3-((1R,2S,5R)-2-isopropyl-5-methylcyclohexyloxy)-3-oxopropyl]piperazin-1-yl}-4-oxo-1,4-dihydroquinoline-3-carboxylic acid], for which the MIC in assay [1], in [2], in [3], in [5], in [6] and in assay [7] was 4 µg/mL (≈ 7.38 µM) throughout. Moreover, the MIC was 32 µg/mL (≈ 59.1 µM) in assay [8]; 256 µg/mL (≈ 473 µM) in assay [13]; 4 µg/mL (≈ 7.38 µM) in assay [14]; 4 µg/mL (≈ 7.38 µM) in [15]; 4 µg/mL (≈ 7.38 µM) in [16]; 64 µg/mL (≈ 118 µM) in [17]. Besides, the MIC in assay [18] is 4 µg/mL (≈ 7.38 µM); in [19], 4 µg/mL (≈ 7.38 µM); in assay [20] it was 2 to 4 µg/mL (≈ 3.69 to 7.38 µM); in assay [21] it was 4 µg/mL (≈ 7.38 µM). The IC50 was determined as 38.6 ± 3.8 µM in assay [4]; 45.5 ± 5.1 µM in [9]; 36.8 ± 3.8 µM in [10]; 27.1 ± 3.1 µM in [11]; 30.3 ± 1.2 µM in assay [12]. Also, the “MIC E. coli ATCC 25922” value in assay [20] (19 h) turned out to be 4 µg/mL (≈ 7.38 µM).
For `COc1cccc2c1C(=O)c1c(O)c3c(c(O)c1C2=O)C[C@@](O)(C(=O)CO)C[C@@H]3O[C@H]1C[C@H](N)[C@H](O)[C@H](C)O1` [Doxorubicin, reference compound], the IC50 in assay [9] was determined as 0.29 ± 0.1 µM; in [10] it was 0.38 µM; in [11], 0.59 ± 0.02 µM; in assay [12] it was 0.75 ± 0.1 µM.
